Test results as given in patent US20220047532A1, “AMPA RECEPTOR ANTAGONISTS SPECIFIC FOR CALCIUM PERMEABLE AMPA RECEPTORS AND METHODS OF TREATMENT THEREWITH” (priority 2018, published 2022).
“Also recorded” adds a separate entry of the source. Like-named read-outs stand apart in the source and are kept apart here.

How the values were obtained:
[1] = tested on: MeCP2 S421 phosphorylation; experiment: KCl-induced MeCP2 S421 phosphorylation, immunoblot, hippocampal cultures; format: cell-based, rat
Experimental: (§1) Nuclei were isolated as previously described (81). […] Blots were incubated with the following primary antibodies: MeCP2 (S421) (1:1000) and total-MeCP2 (1:1000, kind gifts from Dr. Michael Greenberg, Harvard Medical School), phospho-CaMKII (T286) (1:250, Cell Signaling), pan-CaMKII (1:250, Cell Signaling), ([…] (1:5000, Sigma), and lamin A/C (1:1000, Cell Signaling).

[2] = tested on: E18+10DIV cultured hippocampal neurons; experiment: Fura-2 ratiometric Ca2+ imaging of KA-induced Ca2+ influx, hippocampal cultures; format: cell-based, rat; conditions: hippocampus
Experimental: (§2) Ratiometric Ca^2+ imaging was performed on E17/18+10 DIV hippocampal and cortical cultures, plated at 1×10^5 cells/well in 24 well plates. […] After 10 min bathed in 100 μM D-APV (Tocris), cells were stimulated using fast (<2 min) bath application of 30 μM kainate (KA). […] Changes in Ca^2+ influx were assessed by change in 340/380 nm excitation ratio from baseline in individual somas (using regions of interests) in NisElements software (see Supp. Methods).

[3] = tested on: MeCP2 S421 phosphorylation; experiment: KA-induced MeCP2 S421 phosphorylation, immunoblot, hippocampal E18+10DIV cultures; format: cell-based, rat; conditions: H
Experimental: as §1

[4] = tested on: MeCP2 S421 phosphorylation; experiment: KA-induced MeCP2 S421 phosphorylation, immunoblot, cortical E18+10DIV cultures; format: cell-based, rat; conditions: Ctx
Experimental: as §1

[5] = tested on: CaMKII T286 phosphorylation; format: cell-based
Experimental: as §1

[6] = tested on: MeCP2 S421 phosphorylation; experiment: KCl-induced MeCP2 S421 phosphorylation, immunoblot, cortical cultures; format: cell-based, rat
Experimental: as §1

[7] = tested on: E18+10DIV cultured cortical neurons; experiment: Fura-2 ratiometric Ca2+ imaging of KA-induced Ca2+ influx, cortical cultures; format: cell-based, rat; conditions: cortex
Experimental: as §2

CaMKII phosphorylation = experiment: In vivo hypoxic seizure-induced CaMKII phosphorylation; conditions: HS model
Experimental: as §1

PTZ-induced seizures = conditions: in vivo; cited from earlier work
CDKL5 R59X mouse = experiment: Behaviour of CDKL5 R59X mice after acute in vivo treatment
GluA2-lacking AMPAR = experiment: AMPAR eEPSC currents in CDKL5 R59X mouse model; format: cell-based
[8] = tested on: MeCP2 S421 phosphorylation; experiment: In vivo hypoxic seizure (HS)-induced MeCP2 S421 phosphorylation in P10 rats; set-up: species or system rat; conditions: for MeCP2 S421 phosphorylation 3 hrs post-HS: P10 rats, normalized to mean C+V control (100±8%), HS+V 157±11%, 20 mg/kg NBQX, 20 mg/kg IEM-1460, nimodipine 10 mg·kg, i.p.; for Baseline MeCP2 phosphorylation in control rats: control rats without HS
Experimental: as §1

tdTom+ cells = experiment: tdTom+ cell labelling after PTZ seizures at P9-11 in FosTRAP mice; format: in vivo, mouse; conditions: NBQX 1 hr post PTZ stage 5 seizures; preliminary cohort n=3/group
Experimental: Seizures will be induced as described above. For the KA model, beginning 1 hour after KA seizure, mice will receive doses of either NBQX (20 mg/kg i.p.), […] IEM 1460 (10 mg/kg i.p.), or saline every 12 hrs×4 doses as per prior protocols with ELS. For the PTZ model, we will follow our prior protocol, and deliver the NBQX (20 mg/kg i.p.), IEM 1460 (10 mg/kg i.p.) or saline at 1 hr post seizure on P9, P10, and […] (FIG. 33). Mice will be euthanized at P15, P30, or P60. Two sets of groups will be prepared (n=12/group): the first for perfusion and subsequent IHC to determine whether treatment decreases the number of tdTom+ cells. Confocal imaging of at least 2 fields/section and 3 sections/mouse in defined areas of hippocampal CA subfields and dentate gyrus (hippocampus: Bregma −1.46 to −2.70 mm (interaural 2.34 mm-1.1 mm) or primary auditory cortex (Bregma −2.18 mm to −3.64 mm (interaural 1.5 mm to 0.16 mm) will be used. MAP2, Iba-1, GFAP, and GAD67 will be used to confirm cell identity. Cell counts will be performed using ImageJ software and group differences analyzed by 2-way ANOVA/Bonferroni correction. Multivariate linear and logistic regression will be used to evaluate effects of age, gender, treatment groups and seizure severity in ELS. […]

[9] = tested on: primary auditory cortex (AI) silent synapses; experiment: PTZ-ELS auditory cortex critical period plasticity; format: in vivo; conditions: PTZ P9-11; 1 dose following seizure induction each day
[10] = tested on: hypoxic seizure (HS) model; conditions: post-seizure in vivo treatment; previously shown (6, 12); cited from earlier work
[11] = tested on: hippocampal CA1 AMPAR function, silent synapses, LTP; experiment: Hippocampal slice electrophysiology after P10 hypoxic seizures, post-seizure treatment; format: in vivo, rat
Experimental: FIG. 23 ELS induce altered hippocampal CA1 AMPAR function, silent synapses, and synaptic plasticity. Hippocampal brains slices removed at 48-72 h after P10 hypoxic seizures (HS) cause (A) enhanced AMPAR-mediated sEPSCs, (B) inwardly rectifying AMPAR eEPSCs, and (C) a precocious loss of silent synapses indicated by both decreased failure rates and silent synapse fraction. These changes yield attenuated synaptic plasticity both in early-life and as adults: (D) reduced eEPSC amplitude in post-HS 48-72 hrs from whole-cell LTP pairing protocol; (E,F) decreased potentiation from extracellular LTP recordings.

[12] = KA 100 μM, 100 μM D-APV alone, vs. KA, NaOH+DMSO treated controls
[13] = KA-induced, 5 μM KN93, KN92 5 μM, EGTA 1 mM
[14] = KA 100 μM, in the presence of APV, NBQX, NASPM 150 μM, nimodipine 5 μM
[15] = KA+APV plus NBQX 50 μM or NASPM 150 μM, vs. KA+APV condition (100±3%)

For `N[C@H](CCCP(=O)(O)O)C(=O)O` [D-APV], the “KCl-mediated MeCP2 phosphorylation” value ([1]; hippocampal neurons, 10 DIV, D-APV alone) was 73±21%, the “KA-induced Ca2+ influx, normalized mean peak ratio” value ([2]; KA 30 μM, D-APV 100 μM, normalized to KA only (100±3%)) was 73±3% and the “MeCP2 S421 phosphorylation” value [3, 12] was 89±13%. The “MeCP2 S421 phosphorylation” value [4, 12] was 76±13%, the “KA-induced CaMKII phosphorylation” value ([5]; Ctx, pre-treatment with D-APV alone) was 81±11% and the “KA-induced CaMKII phosphorylation” value ([5]; H, pre-treatment with D-APV alone) was 86±9%. For the same compound, the “KCl-mediated MeCP2 phosphorylation” value ([6]; cortical neurons, 10 DIV, D-APV alone) was 87±21% and the “KA-induced Ca2+ influx, normalized mean peak ratio” value ([7]; KA 30 μM, D-APV 100 μM, normalized to KA only (100±2%)) was 74±3%.
In the case of `CC(=O)OCOC(=O)CN(CCOCCOCCN(CC(=O)OCOC(C)=O)CC(=O)OCOC(C)=O)CC(=O)OCOC(C)=O` [EGTA-AM], the “Phosphorylation of MeCP2 S421” value ([3]; 100 μM EGTA-AM, p=0.0057) was “reduced” and the “Phosphorylation of MeCP2 S421” value ([4]; 100 μM EGTA-AM, p=0.0001) was “reduced”.
In the case of `O=C(O)CN(CCOCCOCCN(CC(=O)O)CC(=O)O)CC(=O)O` [EGTA], the “MeCP2 S421 phosphorylation” value [3, 13] was 66±7% and the “MeCP2 S421 phosphorylation” value [4, 13] was 72±7%.
For `Br.C[N+](C)(C)CCCCCNCC12CC3CC(CC(C3)C1)C2.[Br-]` [IEM-1460], the “Seizure-induced CaMKII phosphorylation in vivo” value (CaMKII phosphorylation) is listed as “prevented”, the “Effect in PTZ-induced seizures” value (PTZ-induced seizures) is listed as “anti-seizure effects” and the “Activity-dependent MeCP2 phosphorylation in cultured neurons in vitro” value ([3]; p<0.0361, stimulus and concentration not stated) is listed as “reduced”. For the same compound, the Seizure behavior latency (CDKL5 R59X mouse) was “rescued”, the “Autistic like impairment in social behavior / social deficits” value (CDKL5 R59X mouse; acute in vivo treatment) was “rescued; also recorded: improves” and the “Spatial and temporal working memory in Y maze (% spontaneous alternating behavior)” value (CDKL5 R59X mouse; acute in vivo treatment) was “rescued; also recorded: improves”. The “Enhanced AMPAR currents” value (GluA2-lacking AMPAR) was “decreased; also recorded: attenuated”, the “MeCP2 S421 phosphorylation 3 hrs post-HS” value [8] was 106±11% and the “Baseline MeCP2 phosphorylation in control rats” value [8] was “did not affect”. The “Activity-dependent MeCP2 phosphorylation in cultured neurons in vitro” value ([4]; p<0.0049, stimulus and concentration not stated) was “reduced”.
For `COc1ccc(S(=O)(=O)Nc2ccccc2CN(C)C/C=C/c2ccc(Cl)cc2)cc1` [KN92], the “MeCP2 S421 phosphorylation” value [3, 13] was 97±3% and the “MeCP2 S421 phosphorylation” value [4, 13] was 99±3%.
In the case of `COc1ccc(S(=O)(=O)N(CCO)c2ccccc2CN(C)C/C=C/c2ccc(Cl)cc2)cc1` [KN93], the “MeCP2 S421 phosphorylation” value [3, 13] was 3±1% and the “MeCP2 S421 phosphorylation” value [4, 13] was 10±3%.
In the case of `NCCCNCCCCNCCCNC(=O)Cc1cccc2ccccc12` [NASPM, 1-Napthylacetyl Spermine], the “KCl-mediated MeCP2 phosphorylation” value ([1]; H, in the presence of D-APV) was 11±6%, the “MeCP2 S421 phosphorylation” value [3, 14] was 30±9% and the “MeCP2 S421 phosphorylation” value [4, 14] was 12±2%. For the same compound, the “KA-induced CaMKII phosphorylation” value ([5]; Ctx, in the presence of D-APV) was 25±5%, the “KA-induced CaMKII phosphorylation” value ([5]; H, in the presence of D-APV) was 28±7% and the “KCl-mediated MeCP2 phosphorylation” value ([6]; Ctx, in the presence of D-APV) was 32±13%.
With `NS(=O)(=O)c1cccc2c1c([N+](=O)[O-])cc1nc(O)c(O)nc12` [NBQX] the “KCl-mediated MeCP2 phosphorylation” value ([1]; H, in the presence of D-APV) was 21±6%, the “KCl-induced phosphorylation of MeCP2 S421” value ([1]; hippocampus, NBQX alone, p=0.0003) was “reversed” and the “Remaining NMDAR-insensitive Ca2+ influx” value [2, 15] was 31±2%. For the same compound, the “Number of tdTom+ cells” value (tdTom+ cells) was “decrease; also recorded: reduction”, the “Subsequent A1 plasticity” value [9] was “permits” and the Synapse unsilencing [9] was “prevents”. For the same compound, the “Seizure-induced CaMKII phosphorylation in vivo” value (CaMKII phosphorylation) was “prevented”, the “MeCP2 S421 phosphorylation” value [3, 14] was 3±5% and the “Later-life seizures, altered synaptic plasticity, and autistic-like social deficits” value [10] was “prevents”. The “MeCP2 S421 phosphorylation 3 hrs post-HS” value [8] was 81±8%, the “Baseline MeCP2 phosphorylation in control rats” value [8] was “did not affect” and the “MeCP2 S421 phosphorylation” value [4, 14] was 0±0.3%. The “KA-induced CaMKII phosphorylation” value ([5]; Ctx, in the presence of D-APV) was 18±4%, the “KA-induced CaMKII phosphorylation” value ([5]; H, in the presence of D-APV) was 21±3% and the “Impaired LTP” value ([11]; 48-72 hr post HS and as P60 adults) was “protects”. For the same compound, the “Enhanced AMPAR function following ELS” value ([11]; post-seizure treatment) was “attenuates”, the “Premature silent synapse loss” value ([11]; post-seizure treatment) was “reverses” and the “KCl-mediated MeCP2 phosphorylation” value ([6]; Ctx, in the presence of D-APV) was 35±5%. The “KCl-induced phosphorylation of MeCP2 S421” value ([6]; cortex, NBQX alone, p=0.0069) was “reversed” and the “Remaining NMDAR-insensitive Ca2+ influx” value [7, 15] was 3±2%.
In the case of `COCCOC(=O)C1=C(C)NC(C)=C(C(=O)OC(C)C)C1c1cccc([N+](=O)[O-])c1` (centres unmarked) [nimodipine], the “KCl-mediated MeCP2 phosphorylation” value ([1]; H, in the presence of D-APV) was 0±1%, the “MeCP2 S421 phosphorylation” value [3, 14] was 21±6% and the “MeCP2 S421 phosphorylation 3 hrs post-HS” value [8] was 103±9%. The “MeCP2 S421 phosphorylation” value [4, 14] was 4±1%, the “KA-induced CaMKII phosphorylation” value ([5]; Ctx, in the presence of D-APV) was 23±9% and the “KA-induced CaMKII phosphorylation” value ([5]; H, in the presence of D-APV) was 33±6%. The “KCl-mediated MeCP2 phosphorylation” value ([6]; Ctx, in the presence of D-APV) was 10±6%.
